{
  "source": "patent US11919898B2",
  "about": "“Crystal form of azaindole derivative and use thereof” (Wuxi Life Fountain Biotech Co., Ltd, priority 2020, dated 2024)",
  "key": {"[1]": {"assay": "Solubility test in media of various pH (water, SGF, FaSSIF, FeSSIF)", "type": "physicochemical", "conditions": "for solubility at 24 h: read-out: Solubility (mg/ml)_24 h", "description": "The solubility of the crystal form A of the compound of Formula (II) in 4 media with different pH values was tested. About 10 mg of the crystal form A of the compound of Formula (II) was weighed, and then 5.0 mL of different media (water, SGF, FaSSIF, and FeSSIF) were added respectively, to form a suspension. A magnetron was added to the suspension and the suspension was stirred on a magnetic stirrer for 2 hrs, and a sample was taken and centrifuged after 4 hrs. The sample in the upper layer was determined for concentration by HPLC and determined for the pH value.\n• FaSSIF: (1). 0.042 g of sodium hydroxide, 0.3438 g of sodium dihydrogen phosphate and 0.6186 g of sodium chloride were weighed, added to 90 mL of purified water and mixed well. The solution was adjusted to pH 6.5 with 1 N hydrochloric acid or 1 N sodium hydroxide, and made up to 100 mL with purified water. (2). 0.224 g of commercially available powder of FaSSIF/FeSSIF/FaSSGF was added to 50 mL of the buffer, stirred until dissolved, and made up to 100 mL with purified water. The prepared buffer was left to stand at room temperature for 2 hrs, and observed to be slightly milky white, which was ready for use (simulating intestinal juice in human before eating). • FeSSIF: (1). 0.404 g of sodium hydroxide, and 0.865 g of glacial acetic acid, 1.1874 g of sodium chloride were weighed and added to 90 mL of purified water and mixed well. The solution was adjusted to pH 5.0 with 1 N hydrochloric acid or 1 N sodium hydroxide, and made up to 100 mL with purified water. (2). 1.12 g of commercially available powder of FaSSIF/FeSSIF/FaSSGF was added to 50 mL of the buffer, stirred until dissolved, and made up to 100 mL with purified water. The prepared buffer was left to stand at room temperature for 2 hrs, and observed to be a clear liquid, which was ready for use (simulating intestinal juice in human after eating). • FaSSGF (SGF): (1). 0.2 g of sodium chloride was weighed and added to 90 mL of purified water and mixed well. The solution was adjusted to pH 1.8 with 1 N hydrochloric acid, made up to 100 mL with purified water, and left to stand until it was naturally cooled to room temperature (simulating human gastric juice before eating)."}, "[2]": {"target": "T1, human FGFR1 (Homo sapiens, UniProt P11362)", "T1 construct": "purchased Invitrogen PV3146", "T1 sequence (P11362 22-822)": "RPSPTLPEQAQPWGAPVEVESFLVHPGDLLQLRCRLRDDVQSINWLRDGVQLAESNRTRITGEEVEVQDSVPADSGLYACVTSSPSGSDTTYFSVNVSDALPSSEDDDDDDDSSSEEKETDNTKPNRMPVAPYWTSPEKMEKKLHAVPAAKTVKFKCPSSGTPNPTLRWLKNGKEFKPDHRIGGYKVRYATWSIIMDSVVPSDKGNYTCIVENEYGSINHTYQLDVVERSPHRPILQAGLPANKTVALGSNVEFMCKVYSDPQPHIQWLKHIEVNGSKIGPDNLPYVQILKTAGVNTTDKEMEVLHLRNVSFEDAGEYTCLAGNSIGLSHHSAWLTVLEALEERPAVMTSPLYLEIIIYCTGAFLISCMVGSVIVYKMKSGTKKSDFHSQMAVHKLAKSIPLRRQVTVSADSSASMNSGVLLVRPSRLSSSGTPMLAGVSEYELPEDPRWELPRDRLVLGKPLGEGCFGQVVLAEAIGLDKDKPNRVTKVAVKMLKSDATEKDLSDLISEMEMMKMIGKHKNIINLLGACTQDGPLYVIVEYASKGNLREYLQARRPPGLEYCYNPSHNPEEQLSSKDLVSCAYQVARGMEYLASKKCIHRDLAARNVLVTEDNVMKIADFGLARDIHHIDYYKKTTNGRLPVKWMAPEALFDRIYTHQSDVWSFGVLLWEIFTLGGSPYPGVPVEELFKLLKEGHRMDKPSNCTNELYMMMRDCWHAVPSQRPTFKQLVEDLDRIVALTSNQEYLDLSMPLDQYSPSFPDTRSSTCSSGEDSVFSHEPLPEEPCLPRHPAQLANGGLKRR", "assay": "33P isotope-labeled kinase activity assay, FGFR1", "type": "biochemical", "conditions": "ATP 5 μM", "quoted_text": "Test procedure: At room temperature, the test compound was dissolved in DMSO to prepare a 10 mM solution for use. The substrate was dissolved in freshly prepared buffer, and the test kinase was added and mixed well. A solution of the test compound in DMSO was added to the mixed reaction solution using an acoustic technology (Echo550). […] After 15 min of incubation, ^33P-ATP (with an activity of 0.01 μCi/nL, the corresponding concentration is listed in Table 18) was added to start the reaction. […] The kinase activity data were expressed by the comparison of the kinase activity in the presence of the test compound with the kinase activity of the blank group (containing only DMSO), and an IC50 value was obtained by curve fitting with Prism4 software (GraphPad)."}, "[3]": {"assay": "Stability comparison of crystal form A and crystal form B (slurry in ethanol, XRPD)", "type": "physicochemical", "conditions": "from conversion in ethanol, 16 hrs", "description": "35 g of the crystal form B of the compound of Formula (II) was weighed, added to ethanol, and stirred for 16 hrs."}, "[4]": {"assay": "Solid stability test (high temperature, high humidity, light, accelerated)", "type": "physicochemical", "description": "High Performance Liquid Chromatography (HPLC) of the Present Invention [table] Experimental method: 12 parallel samples of the crystal form A of the compound of formula (II) were weighed in an amount of about 1 g each. Each sample was fed to a double-layer LDPE bag, and each layer of the LDPE bag was tied and sealed. […] The photostability experiment was carried out as described in the Chinese Pharmacopoeia and ICH Q1B. The samples were irradiated with visible light and UV light."}, "[5]": {"target": "T2, human c-Met (Homo sapiens, UniProt P08581)", "T2 construct": "purchased Invitrogen PV3143", "T2 sequence (P08581 25-1390)": "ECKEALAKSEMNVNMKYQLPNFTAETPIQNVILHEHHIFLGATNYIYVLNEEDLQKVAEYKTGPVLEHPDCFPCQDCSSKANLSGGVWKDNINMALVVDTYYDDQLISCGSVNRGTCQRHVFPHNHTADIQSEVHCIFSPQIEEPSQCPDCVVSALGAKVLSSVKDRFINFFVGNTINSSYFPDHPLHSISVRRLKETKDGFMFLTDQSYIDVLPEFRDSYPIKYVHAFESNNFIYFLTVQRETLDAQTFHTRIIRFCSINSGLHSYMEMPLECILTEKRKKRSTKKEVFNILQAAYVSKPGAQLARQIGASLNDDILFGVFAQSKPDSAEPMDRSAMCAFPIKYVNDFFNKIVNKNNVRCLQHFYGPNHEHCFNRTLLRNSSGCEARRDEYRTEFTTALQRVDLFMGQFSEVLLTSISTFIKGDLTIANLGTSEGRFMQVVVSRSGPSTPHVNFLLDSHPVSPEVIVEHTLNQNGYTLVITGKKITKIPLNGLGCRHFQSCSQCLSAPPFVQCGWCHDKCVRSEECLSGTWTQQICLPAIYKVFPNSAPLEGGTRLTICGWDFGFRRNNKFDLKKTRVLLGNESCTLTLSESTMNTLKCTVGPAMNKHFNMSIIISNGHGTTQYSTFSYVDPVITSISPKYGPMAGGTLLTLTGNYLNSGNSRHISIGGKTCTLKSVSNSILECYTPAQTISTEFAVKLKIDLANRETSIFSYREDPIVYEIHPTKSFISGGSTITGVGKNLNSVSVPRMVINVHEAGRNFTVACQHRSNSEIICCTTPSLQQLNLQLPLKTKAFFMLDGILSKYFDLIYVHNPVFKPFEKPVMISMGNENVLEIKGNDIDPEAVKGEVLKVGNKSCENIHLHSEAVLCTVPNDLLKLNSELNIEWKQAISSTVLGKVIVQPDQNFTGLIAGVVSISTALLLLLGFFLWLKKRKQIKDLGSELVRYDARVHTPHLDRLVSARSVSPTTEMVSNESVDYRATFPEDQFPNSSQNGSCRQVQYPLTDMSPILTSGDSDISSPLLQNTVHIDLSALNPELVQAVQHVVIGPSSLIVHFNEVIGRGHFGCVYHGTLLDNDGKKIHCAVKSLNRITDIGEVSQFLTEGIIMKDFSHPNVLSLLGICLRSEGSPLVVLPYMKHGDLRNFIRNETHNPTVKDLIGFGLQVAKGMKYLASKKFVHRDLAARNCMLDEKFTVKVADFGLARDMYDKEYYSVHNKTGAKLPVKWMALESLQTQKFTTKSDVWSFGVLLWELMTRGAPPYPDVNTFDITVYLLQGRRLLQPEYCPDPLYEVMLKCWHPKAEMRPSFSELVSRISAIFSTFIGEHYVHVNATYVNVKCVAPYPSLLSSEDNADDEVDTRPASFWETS", "assay": "33P isotope-labeled kinase activity assay, c-Met", "type": "biochemical", "conditions": "ATP 10 μM", "description": "The IC50 value was tested by ^33P isotope-labeled kinase activity assay (Reaction Biology Corp) to evaluate the inhibition of the test compounds on human FGFR1, FGFR4, and c-Met.\nBuffer: 20 mM Hepes (pH 7.5), 10 mM MgCl2, 1 mM EGTA, 0.02% Brij35, 0.02 mg/ml BSA, 0.1 mMNa3VO4, 2 mM DTT, and 1% DMSO.\nTest procedure: At room temperature, the test compound was dissolved in DMSO to prepare a 10 mM solution for use. The substrate was dissolved in freshly prepared buffer, and the test kinase was added and mixed well. A solution of the test compound in DMSO was added to the mixed reaction solution using an acoustic technology (Echo550). The compound concentration in the reaction solution was 1 μM, 0.25 μM, […], 0.977 nM, 0.244 nM, 0.061 nM, 0.0153 nM, 0.00381 nM, or 10 μM, 2.50 μM, 0.62 μM, 0.156 μM, 39.1 nM, 9.8 nM, 2.4 nM, 0.61 nM, 0.15 nM, and 0.038 nM, respectively. After 15 min of incubation, ^33P-ATP (with an activity of 0.01 μCi/nL, the corresponding concentration is listed in Table 18) was added to start the reaction. The supplier's catalogue number, lot number, and concentration in the reaction solution of FGFR1, FGFR4, c-Met, and substrates thereof are listed in Table 18. […]"}, "[6]": {"conditions": "Acceleration experiment (40° C./relative humidity 75%, open), 1 month"}, "[7]": {"conditions": "Acceleration experiment (40° C./relative humidity 75%, open), 2 month"}, "[8]": {"conditions": "Acceleration experiment (40° C./relative humidity 75%, open), 3 month"}, "[9]": {"conditions": "High humidity (room temperature/relative humidity 92.5%, open), Day 5"}, "[10]": {"conditions": "High humidity (room temperature/relative humidity 92.5%, open), Day 10"}, "[11]": {"conditions": "High humidity (room temperature/relative humidity 92.5%, open), Day 30"}, "[12]": {"conditions": "High temperature (60° C., open), Day 5"}, "[13]": {"conditions": "High temperature (60° C., open), Day 10"}, "[14]": {"conditions": "High temperature (60° C., open), Day 30"}, "[15]": {"conditions": "Light irradiation (1.2 × 10^6 Lux·hr / near ultraviolet 200 w·hr/m^2, open 10 days), light irradiation sample"}, "[16]": {"conditions": "Light irradiation test, sample in the dark"}},
  "note": "Like-named read-outs stand apart in the source and are kept apart here.",
  "data": [
    {"smiles": "COc1cc(OC)c(F)c(Cc2c[nH]c3ncc(-c4cnn(CCO)c4)cc23)c1F.Cl", "values": [
      {"measurement": "solubility at 24 h", "setting": "[1]; SGF (FaSSGF), pH 1.25, simulated gastric fluid, thermodynamic from solid, SGF, pH (24 h) 1.25, suspension", "result": 0.112, "unit": "mg/mL"},
      {"measurement": "solubility at 24 h", "setting": "[1]; pH 4.89, thermodynamic from solid, FeSSIF, pH (24 h) 4.89, suspension", "result": 0.252, "unit": "mg/mL"},
      {"measurement": "solubility at 24 h", "setting": "[1]; pH 5.55, thermodynamic from solid, FaSSIF, pH (24 h) 5.55, suspension", "result": 0.004, "unit": "mg/mL"},
      {"measurement": "Solubility in words", "setting": "[1]; simulated gastric juice before eating in human (SGF)", "result": "good"},
      {"measurement": "Solubility in words", "setting": "[1]; simulated intestinal juice before eating (FaSSIF)", "result": "poor"},
      {"measurement": "Solubility in words", "setting": "[1]; simulated intestinal juice of the small intestine after eating in human (FeSSIF)", "result": "good"},
      {"measurement": "Solubility in words", "setting": "[1]; water", "result": "hard to dissolve in water"},
      {"measurement": "solubility at 24 h", "setting": "[1]; water, pH 2.42, water, thermodynamic from solid", "result": 0.009, "unit": "mg/mL"},
      {"measurement": "IC50", "setting": "[2]", "result": 0.2, "unit": "nM"},
      {"measurement": "Relative stability of crystal forms", "setting": "[3]", "result": "more stable than the crystal form B of the compound of Formula (II)"},
      {"measurement": "Content (%)", "setting": "[4]; [6]", "result": 99.7, "unit": "%"},
      {"measurement": "Total impurity (%)", "setting": "[4]; [6]", "result": 0.67, "unit": "%"},
      {"measurement": "Content (%)", "setting": "[4]; [7]", "result": 99.7, "unit": "%"},
      {"measurement": "Total impurity (%)", "setting": "[4]; [7]", "result": 0.69, "unit": "%"},
      {"measurement": "Content (%)", "setting": "[4]; [8]", "result": 99.9, "unit": "%"},
      {"measurement": "Total impurity (%)", "setting": "[4]; [8]", "result": 0.68, "unit": "%"},
      {"measurement": "Content (%)", "setting": "[4]; Day 0", "result": 99.8, "unit": "%"},
      {"measurement": "Total impurity (%)", "setting": "[4]; Day 0", "result": 0.71, "unit": "%"},
      {"measurement": "Content (%)", "setting": "[4]; [9]", "result": 99.6, "unit": "%"},
      {"measurement": "Total impurity (%)", "setting": "[4]; [9]", "result": 0.75, "unit": "%"},
      {"measurement": "Content (%)", "setting": "[4]; [10]", "result": 99.8, "unit": "%"},
      {"measurement": "Total impurity (%)", "setting": "[4]; [10]", "result": 0.71, "unit": "%"},
      {"measurement": "Content (%)", "setting": "[4]; [11]", "result": 98.9, "unit": "%"},
      {"measurement": "Total impurity (%)", "setting": "[4]; [11]", "result": 0.65, "unit": "%"},
      {"measurement": "Content (%)", "setting": "[4]; [12]", "result": 99.6, "unit": "%"},
      {"measurement": "Total impurity (%)", "setting": "[4]; [12]", "result": 0.78, "unit": "%"},
      {"measurement": "Content (%)", "setting": "[4]; [13]", "result": 99.9, "unit": "%"},
      {"measurement": "Total impurity (%)", "setting": "[4]; [13]", "result": 0.76, "unit": "%"},
      {"measurement": "Content (%)", "setting": "[4]; [14]", "result": 98.5, "unit": "%"},
      {"measurement": "Total impurity (%)", "setting": "[4]; [14]", "result": 0.80, "unit": "%"},
      {"measurement": "Content (%)", "setting": "[4]; [15]", "result": 99.8, "unit": "%"},
      {"measurement": "Total impurity (%)", "setting": "[4]; [15]", "result": 0.76, "unit": "%"},
      {"measurement": "Content (%)", "setting": "[4]; [16]", "result": 99.8, "unit": "%"},
      {"measurement": "Total impurity (%)", "setting": "[4]; [16]", "result": 0.79, "unit": "%"},
      {"measurement": "Solid stability in words", "setting": "[4]; accelerated conditions and affecting factors", "result": "very stable, and no obvious unknown impurities are formed"},
      {"measurement": "IC50", "setting": "[5]", "result": 15.9, "unit": "nM"}
    ]}
  ]
}
